Test results published in patent US8420606B2, “Method of utilizing physiological activity of rare saccharide and composition containing rare saccharide” (priority 2002, dated 2013).

Key:
[1] = test system: glutamate release from hippocampus; experiment: temporary brain ischemia, glutamate outside hippocampus neurons by micro-dialysis; type: in vivo, gerbil; conditions: pre-administration; compared with effect of D-allose
Method: (2) Method: The bilateral common carotid artery of a gerbil was shut off for 5 minutes. After 1 week, the gerbil was sacrificed and a sample was prepared in accordance with the ordinary method, followed by hematoxyline eosin dyeing. The survival rate was measured by counting the number of hippocampus neurons while looking at them under a microscope. Experiments were performed on a normal control group, a group subjected to only ischemia, and a group administrated with 200 mg/kg of D-allose or D-psicose before ischemia. It is known that glutamates released in large amount from the neurons with ischemia are toxic to the neurons. Such a point was examined by fixing the gerbil to a brain position fixing device, perfusing a solution, in which oxidase glutamate is dissolved, to the hippocampus through a probe for micro-dialysis, and measuring the glutamate concentration outside the hippocampus neurons. Also, the inventors have clarified the relationship between the metabolism of glucose and the action mechanism of D-allose with ischemia by pre-administrating D-allose and 2-deoxiglucose.

[2] = test system: skin keratinocyte (HaCaT); experiment: proliferation of cultured cells, MTT method, HaCaT; type: cell-based, human; conditions: saccharide 50 mM, 4 to 5 days
Method: (§1) Various kinds of rare saccharides were added at a concentration of 50 mM to culture media under the following conditions, and an influence of each rare saccharide upon the progress of proliferation of cancer cell strains was examined.
(§2) (1) Target cells to which the rare saccharides were added: Hepatic cancer cells (HepG2), uterine cancer cells (He1a), ovary cancer cells (OVCAR3), and skin keratinocyte (HaCaT) were selected as target cells to which the rare saccharides were added.
(§3) (2) Rare saccharides added: In addition to D-allose, glucose and D-altros as rare saccharides belonging to ketose were added, as other comparative saccharides, to the addition target cells. Also, D-fructose was employed as a control.
(3) Experiment method: A number 3,000-5,000 of addition target cells per type were inoculated into a multi-well plastic dish (hereinafter referred to as a “well”) having 96 wells, and were cultured for 4 to 5 days in a culture medium supplemented with 5 to 10% of Fetal Bovine Serum (FBS) depending on the cell types. […] To examine the influence upon the cell proliferation, the cell number was measured in units of 24 hours by using the MTT method described below. […]
(2) Test method: The cells were treated with TEP to prepare a cell suspension liquid. […] The absorbance of the liquid was measured at a wavelength of 570 to 600 nm by using a spectrophotometer. […]

HL-60 = experiment: blood-system cancer cell strain proliferation, Coulter Counter, HL60; type: cell-based; conditions: 0.05-50 mM, 7 days, D-glucose control
Method: (§4) (2) Method: Total 6 kinds of cell strains, i.e., Myeloid (HL-60, THP-1, KG-1), T-cell (MT-2), and B-Cell (Daudi, KS-1), and 3 kinds of rare saccharides (i.e., D-psicose, D-altrose, and D-allose), were employed. The culture medium and the cells were prepared to be 1 mL in total and 1×10^5 in number, respectively. Then, the cell number at each of fourth day and seventh day was counted by using a Coulter Counter. Each rare saccharide was added at concentrations of 0.05, 0.5, 5 and 50 mM, while D-glucose was used as a control.
(§5) Culture Medium: FBS 10% added RPMI1460
(§6) Cultivation Conditions: 37° C., 5% CO2
(§7) Cultivation Vessel: FALCON, MULTIWELL, 12 wells
(§8) Number of Cultivation Days: 7 days
(§9) Saccharides Concentration: 0.05, 0.5, 5, 50 mM

Daudi = experiment: blood-system cancer cell strain proliferation, Coulter Counter, Daudi; type: cell-based; conditions: 0.05-50 mM, 7 days, D-glucose control
Method: as §4, §5, §6, §7, §8, §9

[3] = test system: Hepatic cancer cells (HepG2); experiment: proliferation of cultured cells, MTT method, HepG2; type: cell-based, human; conditions: saccharide 50 mM, 4 to 5 days
Method: as §1, §2, §3
(§10) (3) Experiment method: A number 3,000-5,000 of addition target cells per type were inoculated into a multi-well plastic dish (hereinafter referred to as a “well”) having 96 wells, and were cultured for 4 to 5 days in a culture medium supplemented with 5 to 10% of Fetal Bovine Serum (FBS) depending on the cell types. D-Allose, D-glucose and D-altros were each added at concentration of 50 mM to the addition target cells per type. Similarly, D-fructose as a control was added at a concentration of 50 mM. To examine the influence upon the cell proliferation, the cell number was measured in units of 24 hours by using the MTT method described below.
(1) Preparation of reagents: A predetermined amount of MTT (tetrazolium salt) was dissolved in PBS(−) sterilized in an autoclave to obtain an MTT solution through filtering and sterilization. An acidic solution was prepared by adding 50 mL of N,N-dimethylformaldehyde and water to a predetermined amount of (20 g) of SDS, thereby obtaining a 100 mL of solution. […]
(2) Test method: The cells were treated with TEP to prepare a cell suspension liquid. […] The absorbance of the liquid was measured at a wavelength of 570 to 600 nm by using a spectrophotometer. After dissolving the colored substance (formazan) in the acid solution, the absorbance can be measured directly by a plate reader.

[4] = test system: ovary cancer cells (OVCAR3); experiment: proliferation of cultured cells, MTT method, OVCAR3; type: cell-based; conditions: saccharide 50 mM, 4 to 5 days, MTT
Method: as §1, §2, §3, §10
(1) Preparation of reagents: A predetermined amount of MTT (tetrazolium salt) was dissolved in PBS(−) sterilized in an autoclave to obtain an MTT solution through filtering and sterilization. An acidic solution was prepared by adding 50 mL of N,N-dimethylformaldehyde and water to a predetermined amount of (20 g) of SDS, thereby obtaining a 100 mL of solution. About […] of 1N hydrochloric acid was added to the solution for adjustment of a pH-value to 4.7. The solution was preserved at room temperature and warmed up to 37° C. just before the use.
(2) Test method: The cells were treated with TEP to prepare a cell suspension liquid. This cell suspension liquid was pipetted in a predetermined cell-density (300 to 52000 cells/well) to each well (96-well plate: 0.1 mL of culture medium per well). The saccharide as a drug was added in a predetermined amount to each well, followed by cultivation for a whole day and night in a CO2 incubator. Then, 0.5 mg/mL of the MTT solution was added and the resulting culture was incubated for 4 hours in the incubator. Thereafter, the culture medium was completely removed. Then, in a room kept at 37° C., an acid solution was added in amount of 0.1 mL/well. The well plate was placed on a micro-plate mixer and shaken at 37° C. for 20 minutes to dissolve a colored substance (namely, to dissolve “formazan” in the acid solution). The absorbance of the liquid was measured at a wavelength of 570 to 600 nm by using a spectrophotometer. After dissolving the colored substance (formazan) in the acid solution, the absorbance can be measured directly by a plate reader.
(1) Experiment method: The ovary cancer cells (OVCAR3) were selected as target cells to which a rare saccharide was added, and D-allose as the saccharide was added at concentrations of 1 mM, 5 mM, 10 mM, 20 mM, 50 mM and 100 mM. The experimental conditions, such as the method of culturing the ovary cancer cells (OVCAR3) and the method of measuring the cell number (MTT method), were the same as those in Example 1.

[5] = test system: Rat leukocyte (granulocyte); experiment: production of active oxygen from leukocyte, LO12 chemiluminescence, zymosan; type: cell-based; conditions: saccharide 10 mM added to the producing system, zymosan
Method: Influences of various kinds of rare saccharides upon production of active oxygen from leukocyte were examined under the conditions given below. In this Example 5, an effect against the production of active oxygen from leukocyte was examined with LO12 chemiluminescence.
(1) Target leukocyte to which the rare saccharides were added: Rat leukocyte (granulocyte) was used.
(2) Rare saccharides added: In addition to D-allose as a rare saccharide belonging to aldose, D-psicose and D-altros as rare saccharides belonging to ketose and D-tallitol belong to polyol were added as other comparative saccharides. Further, D-glucose and D-fructose were employed as saccharides abundant in the natural world.
(3) Experiment method: (1) Changes over time in production of active oxygen from rat leukocyte . . . The time-dependent progress in production of active oxygen caused by adding zymosan particles to rat leukocyte (granulocyte) was examined. Also, the time-dependent progress in production of active oxygen caused under the presence of each of the rare saccharides was examined.
(2) Influences of rare saccharides upon production of active oxygen . . . By adding the various saccharides to the system for producing active oxygen from leukocyte, the amount of produced active oxygen was measured for each saccharide. The concentration of each of the added rare saccharides was set to 10 mM. Also, the measurement was made under the condition without addition of any saccharides.
(3) Effect of rare saccharides upon production of active oxygen . . . The rare saccharides were each added at concentration of 10 mM after the start of phagocytosis and the start of the production of active oxygen subsequent to addition of zymosan to leukocyte.
(4) Concentration dependency of active-oxygen production inhibitory effect of D-allose . . . Concentration dependency of the active-oxygen production inhibitory effect of D-allose was examined. D-allose was added at concentration of 0 mM, 5 mM and 10 mM.

human albumin = human albumin (Homo sapiens, UniProt P02768); experiment: saccharification (glycation) of albumin, glycoalbumin reagent; type: biochemical; conditions: albumin 3 g/dl
Sequence of human albumin (P02768 25-609): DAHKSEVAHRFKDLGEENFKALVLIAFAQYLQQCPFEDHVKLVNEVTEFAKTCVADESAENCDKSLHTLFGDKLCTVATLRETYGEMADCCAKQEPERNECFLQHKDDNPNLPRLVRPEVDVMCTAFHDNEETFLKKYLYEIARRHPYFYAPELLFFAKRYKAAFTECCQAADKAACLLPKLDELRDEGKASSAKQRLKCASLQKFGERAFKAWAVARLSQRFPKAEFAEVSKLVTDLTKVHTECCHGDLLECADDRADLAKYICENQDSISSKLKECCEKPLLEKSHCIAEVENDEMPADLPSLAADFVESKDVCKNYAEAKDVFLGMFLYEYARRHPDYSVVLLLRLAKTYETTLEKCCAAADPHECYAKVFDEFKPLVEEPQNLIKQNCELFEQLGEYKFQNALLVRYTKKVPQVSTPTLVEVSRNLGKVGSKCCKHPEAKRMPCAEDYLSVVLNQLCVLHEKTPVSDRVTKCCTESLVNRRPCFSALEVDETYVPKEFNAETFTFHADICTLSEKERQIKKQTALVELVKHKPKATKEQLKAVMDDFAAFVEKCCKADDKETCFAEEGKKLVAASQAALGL
Method: (2) Method: After fragmenting albumin into amino acids by using protease K, i.e., glycoalbumin (GA) measurement reagent (made by Oriental Yeast Co., Ltd.), glycolysine was measured by using ketoamine oxydase (see FIG. 38). Glycation of human albumin with various rare saccharides was examined. A sample was prepared through the steps of dissolving 3 g/dl of pure human albumin in PBS and then dissolving each of the rare saccharides so as to prepare a solution in final concentration of 55.5 mM. The prepared solution was filtrated with a filter of 0.25 μm mesh and sterilized, followed by incubation at 37° C. for 7 days. During the incubation, the GA concentration (glycolysine concentration) was measured at intervals of exactly 24 hours. Further, similar experiments were conducted by adding each of the rare saccharides in an albumin solution (final concentration 3 g/dl) and a glucose solution (final concentration 55.5 mM) so that each of the rare saccharides had final concentration of 55.5 mM.

[6] = saccharide 55.5 mM, 37° C., 7 days

O=CC[C@@H](O)[C@H](O)[C@H](O)CO [2-deoxyglucose, reference compound]
glutamate release inhibitory effect [1]: similarly observed

O=C[C@@H](O)[C@H](O)[C@H](O)[C@H](O)CO [D-altrose, reference compound]
proliferation of HaCaT cells (cell number over time) [2]: inhibitory effect at a medium level | HL60 proliferation inhibitory effect (HL-60): showed no effect | Daudi-cell proliferation inhibitory effect (Daudi): showed no effect | proliferation of HepG2 cells (cell number over time) [3]: weaker than that of D-allose | proliferation of OVCAR3 cells (cell number over time) [4]: weaker than that of D-allose | production of active oxygen from leukocyte [5]: No inhibitory effect

O=C(CO)[C@@H](O)[C@H](O)[C@H](O)CO [D-fructose, reference compound]
glycation (saccharification) of albumin (human albumin; [6]): do not cause the saccharification

O=C[C@@H](O)[C@@H](O)[C@H](O)[C@H](O)CO [D-mannose, reference compound]
saccharification rate of albumin under coexistence with glucose (human albumin; saccharide 55.5 mM + D-glucose 55.5 mM): about 100 μmol/day | saccharification rate of albumin (human albumin; [6]): about 50 μmol/day

OC[C@@H](O)[C@H](O)[C@H](O)[C@H](O)CO [D-tallitol, reference compound]
production of active oxygen from leukocyte [5]: No inhibitory effect
